System: MV-4-11 cells
Assay: Gene expression microarray analysis (Affymetrix PrimeView) and GSEA
Format: cell-based, human
Set-up: RFU PODN (11730768_x_at) / Fold change /veh PODN (11730768_x_at) / RFU LINC00158 (11744669_a_at) / Fold change /veh LINC00158 (11744669_a_at) / RFU DUSP10 (11751237_a_at) / Fold change /veh DUSP10 (11751237_a_at) / RFU ID3 (11757404_x_at) / Fold change /veh ID3 (11757404_x_at) / RFU PLEKHG5 (11737974_s_at) / Fold change /veh PLEKHG5 (11737974_s_at) / RFU LRRC4B (11730491_at) / Fold change /veh LRRC4B (11730491_at) / RFU GIMAP4 (11747438_a_at) / Fold change /veh GIMAP4 (11747438_a_at) / RFU KRT8 (11758183_x_at) / Fold change /veh KRT8 (11758183_x_at) / RFU CNN1 (11734310_a_at) / Fold change /veh CNN1 (11734310_a_at) / RFU VPS37D (11726825_at) / Fold change /veh VPS37D (11726825_at) / RFU C10orf10 (11716522_x_at) / Fold change /veh C10orf10 (11716522_x_at) / RFU KIR2DL2 /// KIR2DL4 /// KIR2DL5A /// KIR2DL5B /// KIR2DS1 /// KIR2DS2 /// KIR2DS3 /// KIR2DS4 /// KIR3DL3 /// KIR3DL3 /// KIR3DS1 (11738374_at) / Fold change /veh KIR2DL2 /// KIR2DL4 /// KIR2DL5A /// KIR2DL5B /// KIR2DS1 /// KIR2DS2 /// KIR2DS3 /// KIR2DS4 /// KIR3DL3 /// KIR3DL3 /// KIR3DS1 (11738374_at) / RFU C1QL1 (11718748_at) / Fold change /veh C1QL1 (11718748_at) / RFU TMPRSS4 (11747572_a_at) / Fold change /veh TMPRSS4 (11747572_a_at) / RFU HAMP (11756126_x_at) / Fold change /veh HAMP (11756126_x_at) / RFU RNFT2 (11725882_a_at) / Fold change /veh RNFT2 (11725882_a_at) / RFU NR4A2 (11747474_a_at) / Fold change /veh NR4A2 (11747474_a_at) / RFU ABCC12 (11746883_a_at) / Fold change /veh ABCC12 (11746883_a_at) / RFU TMEM136 (11760407_x_at) / Fold change /veh TMEM136 (11760407_x_at) / RFU CLDN22 /// WWC2 (11732394_at) / Fold change /veh CLDN22 /// WWC2 (11732394_at) / RFU HLA-DPB1 (11760878_x_at) / Fold change /veh HLA-DPB1 (11760878_x_at) / RFU SPINT1 (11716480_a_at) / Fold change /veh SPINT1 (11716480_a_at) / RFU GAP43 (11754022_s_at) / Fold change /veh GAP43 (11754022_s_at) / RFU A4GNT (11735810_at) / Fold change /veh A4GNT (11735810_at) / RFU PRB3 (11715151_x_at) / Fold change /veh PRB3 (11715151_x_at) / RFU TUBB4B (11761932_at) / Fold change /veh TUBB4B (11761932_at) / RFU CAPN14 (11732068_a_at) / Fold change /veh CAPN14 (11732068_a_at) / RFU TMCC2 (11721928_a_at) / Fold change /veh TMCC2 (11721928_a_at) / RFU IRGQ (11745062_a_at) / Fold change /veh IRGQ (11745062_a_at) / RFU FAM174B (11720279_a_at) / Fold change /veh FAM174B (11720279_a_at) / RFU TMPRSS4 (11748680_a_at) / Fold change /veh TMPRSS4 (11748680_a_at) / RFU FAM212B (11763350_a_at) / Fold change /veh FAM212B (11763350_a_at) / RFU PLEKHG5 (11743358_a_at) / Fold change /veh PLEKHG5 (11743358_a_at) / RFU ZSCAN30 (11745921_a_at) / Fold change /veh ZSCAN30 (11745921_a_at) / RFU CMKLR1 (11741424_a_at) / Fold change /veh CMKLR1 (11741424_a_at) / RFU LOC101060620 /// MAPK8IP1 (11723275_at) / Fold change /veh LOC101060620 /// MAPK8IP1 (11723275_at) / RFU SPTSSB (11747773_x_at) / Fold change /veh SPTSSB (11747773_x_at) / RFU PRSS12 (11739890_at) / Fold change /veh PRSS12 (11739890_at) / RFU BIN1 (11741810_x_at) / Fold change /veh BIN1 (11741810_x_at) / RFU WNT11 (11732464_a_at) / Fold change /veh WNT11 (11732464_a_at) / RFU C10orf10 (11716521_a_at) / Fold change /veh C10orf10 (11716521_a_at) / RFU C5orf56 (11738089_at) / Fold change /veh C5orf56 (11738089_at) / RFU CYB561 (11721691_x_at) / Fold change /veh CYB561 (11721691_x_at) / RFU ANKRD19P (11752326_a_at) / Fold change /veh ANKRD19P (11752326_a_at) / RFU OR2T12 /// OR2T33 /// OR2T8 (11738714_s_at) / Fold change /veh OR2T12 /// OR2T33 /// OR2T8 (11738714_s_at) / RFU VCAN (11748164_a_at) / Fold change /veh VCAN (11748164_a_at) / RFU JSRP1 (11732532_at) / Fold change /veh JSRP1 (11732532_at) / RFU KRTAP10-11 (11738290_x_at) / Fold change /veh KRTAP10-11 (11738290_x_at) / RFU MYO3A (11730013_a_at) / Fold change /veh MYO3A (11730013_a_at) / RFU EBF3 (11725865_a_at) / Fold change /veh EBF3 (11725865_a_at) / RFU CAMK2N1 (11719241_x_at) / Fold change /veh CAMK2N1 (11719241_x_at) / RFU C5orf56 (11738088_a_at) / Fold change /veh C5orf56 (11738088_a_at) / RFU OLFML3 (11715873_a_at) / Fold change /veh OLFML3 (11715873_a_at) / RFU LOC100653217 /// NTM (11731650_a_at) / Fold change /veh LOC100653217 /// NTM (11731650_a_at) / RFU MAPK11 (11762145_a_at) / Fold change /veh MAPK11 (11762145_a_at) / RFU FIZ1 (11724087_x_at) / Fold change /veh FIZ1 (11724087_x_at) / RFU OASL (11726364_x_at) / Fold change /veh OASL (11726364_x_at) / RFU SOX15 (11748057_x_at) / Fold change /veh SOX15 (11748057_x_at) / RFU CD79A (11719716_a_at) / Fold change /veh CD79A (11719716_a_at) / RFU HIST1H1D (11736915_at) / Fold change /veh HIST1H1D (11736915_at) / RFU CASKIN2 (11723855_a_at) / Fold change /veh CASKIN2 (11723855_a_at) / RFU LOC730098 (11760151_x_at) / Fold change /veh LOC730098 (11760151_x_at) / RFU OR4N2 (11742367_at) / Fold change /veh OR4N2 (11742367_at) / RFU PRRT2 (11749266_a_at) / Fold change /veh PRRT2 (11749266_a_at) / RFU SNX32 (11753110_a_at) / Fold change /veh SNX32 (11753110_a_at) / RFU CDHR5 (11726645_a_at) / Fold change /veh CDHR5 (11726645_a_at) / RFU RCAN1 (11760418_a_at) / Fold change /veh RCAN1 (11760418_a_at) / RFU FAM167A (11723789_a_at) / Fold change /veh FAM167A (11723789_a_at) / RFU FAM26E (11764081_at) / Fold change /veh FAM26E (11764081_at) / RFU ISYNA1 (11749810_s_at) / Fold change /veh ISYNA1 (11749810_s_at) / RFU ACY1 (11761880_at) / Fold change /veh ACY1 (11761880_at) / RFU 11764098_at / Fold change /veh 11764098_at / RFU SAMD14 (11745864_x_at) / Fold change /veh SAMD14 (11745864_x_at) / RFU NPB (11741838_a_at) / Fold change /veh NPB (11741838_a_at) / RFU TMPRSS6 (11731388_a_at) / Fold change /veh TMPRSS6 (11731388_a_at) / RFU KRTAP10-2 (11738614_at) / Fold change /veh KRTAP10-2 (11738614_at) / RFU ARHGAP8 /// PRR5-ARHGAP8 (11727945_x_at) / Fold change /veh ARHGAP8 /// PRR5-ARHGAP8 (11727945_x_at) / RFU KRTAP5-7 /// NADSYN1 (11734609_at) / Fold change /veh KRTAP5-7 /// NADSYN1 (11734609_at) / RFU RASL12 (11751679_a_at) / Fold change /veh RASL12 (11751679_a_at) / RFU CDKN2B (11736163_a_at) / Fold change /veh CDKN2B (11736163_a_at) / RFU PRF1 (11729649_at) / Fold change /veh PRF1 (11729649_at) / RFU, ZNF638 /// ZNF638-IT1 / Fold change vs veh, ZNF638 /// ZNF638-IT1 / RFU, PANK3 / Fold change vs veh, PANK3 / RFU, SH3YL1 / Fold change vs veh, SH3YL1 / RFU, ZEB2 / Fold change vs veh, ZEB2 / RFU, NRIP1 / Fold change vs veh, NRIP1 / RFU, PTTG1IP / Fold change vs veh, PTTG1IP / RFU, CAPN2 / Fold change vs veh, CAPN2 / RFU, MED14 / Fold change vs veh, MED14 / RFU, SNORA58 / Fold change vs veh, SNORA58 / RFU, C1orf63 / Fold change vs veh, C1orf63 / RFU, LRRFIP1 / Fold change vs veh, LRRFIP1 / RFU, NDUFAF7 / Fold change vs veh, NDUFAF7 / RFU, SLC12A2 / Fold change vs veh, SLC12A2 / RFU, IBTK / Fold change vs veh, IBTK / RFU, ESF1 / Fold change vs veh, ESF1 / Fold change vs veh, TMEM50B / RFU, TAOK1 / Fold change vs veh, TAOK1 / RFU, ACBD3 / Fold change vs veh, ACBD3 / RFU, TMA16 / Fold change vs veh, TMA16 / RFU, RWDD3 / Fold change vs veh, RWDD3 / RFU, BCAT1 / Fold change vs veh, BCAT1 / RFU, EDEM3 / Fold change vs veh, EDEM3 / RFU, TMEM33 / Fold change vs veh, TMEM33 / RFU, WDR75 / Fold change vs veh, WDR75 / RFU, AHCTF1 / Fold change vs veh, AHCTF1 / RFU, TFRC / Fold change vs veh, TFRC / RFU, ZDHHC17 / Fold change vs veh, ZDHHC17 / RFU, NOM1 / Fold change vs veh, NOM1 / RFU, ARL8B / Fold change vs veh, ARL8B / RFU, ZBTB11 / Fold change vs veh, ZBTB11 / RFU, TAMM41 / Fold change vs veh, TAMM41 / RFU, KIAA1704 /// LOC100996395 / Fold change vs veh, KIAA1704 /// LOC100996395 / RFU, ING1 / Fold change vs veh, ING1 / RFU, TRMT61B / Fold change vs veh, TRMT61B / RFU, FUBP3 / Fold change vs veh, FUBP3 / RFU, TP53 / Fold change vs veh, TP53 / RFU, TNKS2 / Fold change vs veh, TNKS2 / RFU, ZFP14 / Fold change vs veh, ZFP14 / RFU, ACTR2 / Fold change vs veh, ACTR2 / RFU, PPP3R1 / Fold change vs veh, PPP3R1 / RFU, PIK3R1 / Fold change vs veh, PIK3R1 / RFU, HNRNPA1 / Fold change vs veh, HNRNPA1 / RFU, RNF170 / Fold change vs veh, RNF170 / RFU, ZNF28 / Fold change vs veh, ZNF28 / RFU, RNGTT / Fold change vs veh, RNGTT / RFU, OGT / Fold change vs veh, OGT / RFU, BRD1 / Fold change vs veh, BRD1 / RFU, MARS / Fold change vs veh, MARS / RFU, ZNF655 / Fold change vs veh, ZNF655 / RFU, FAHD1 / Fold change vs veh, FAHD1 / RFU, BDP1 / Fold change vs veh, BDP1 / RFU, LRRCC1 / Fold change vs veh, LRRCC1 / RFU, ARID1A / Fold change vs veh, ARID1A / RFU, ZNF146 / Fold change vs veh, ZNF146 / RFU, ZNF330 / Fold change vs veh, ZNF330 / RFU, GPN3 / Fold change vs veh, GPN3 / RFU, C9orf123 / Fold change vs veh, C9orf123 / RFU, N4BP2L2 / Fold change vs veh, N4BP2L2 / RFU, ARFIP1 / Fold change vs veh, ARFIP1 / RFU, FAM179B / Fold change vs veh, FAM179B / RFU, BCL10 / Fold change vs veh, BCL10 / RFU, UHRF1BP1L / Fold change vs veh, UHRF1BP1L / RFU, BET1 / Fold change vs veh, BET1 / RFU, CNOT2 / Fold change vs veh, CNOT2 / RFU, ZNF268 / Fold change vs veh, ZNF268 / Fold change vs veh, ZNF507 / RFU, DGCR2 / Fold change vs veh, DGCR2 / RFU, WDSUB1 / Fold change vs veh, WDSUB1 / Fold change vs veh, HSP90B1 /// MIR3652 / RFU, ADSS / Fold change vs veh, ADSS / RFU, GK / Fold change vs veh, GK / RFU, ZNF148 / Fold change vs veh, ZNF148 / RFU, TAF9 / Fold change vs veh, TAF9 / RFU, SLC1A5 / Fold change vs veh, SLC1A5 / RFU, SLMO2 / Fold change vs veh, SLMO2 / RFU, ABCC4 / Fold change vs veh, ABCC4 / RFU, LOC101060439 /// RAP1B / Fold change vs veh, LOC101060439 /// RAP1B / RFU, RFX7 / Fold change vs veh, RFX7 / RFU, GTPBP10 / Fold change vs veh, GTPBP10 / RFU, CNEP1R1 / Fold change vs veh, CNEP1R1 / RFU, BIVM-ERCC5 /// ERCC5 / Fold change vs veh, BIVM-ERCC5 /// ERCC5 / RFU, ILF3 / Fold change vs veh, ILF3 / RFU 11762660_at / Fold change /veh 11762660_at / RFU VCAN (11757783_s_at) / Fold change /veh VCAN (11757783_s_at) / RFU DDX43 (11728927_at) / Fold change /veh DDX43 (11728927_at) / RFU KRT8 (11758188_x_at) / Fold change /veh KRT8 (11758188_x_at) / RFU NKD1 (11759106_at) / Fold change /veh NKD1 (11759106_at) / RFU SRD5A1 (11742802_a_at) / Fold change /veh SRD5A1 (11742802_a_at) / RFU TPSAB1 /// TPSB2 (11721975_s_at) / Fold change /veh TPSAB1 /// TPSB2 (11721975_s_at) / RFU GSTM3 (11746129_a_at) / Fold change /veh GSTM3 (11746129_a_at) / RFU IL23R (11737362_x_at) / Fold change /veh IL23R (11737362_x_at) / RFU TMEM51 (11727254_a_at) / Fold change /veh TMEM51 (11727254_a_at) / RFU PIWIL2 (11732686_x_at) / Fold change /veh PIWIL2 (11732686_x_at) / RFU ORM1 (11744905_x_at) / Fold change /veh ORM1 (11744905_x_at) / RFU CCDC152 (11743942_at) / Fold change /veh CCDC152 (11743942_at) / RFU ECM1 (11717891_a_at) / Fold change /veh ECM1 (11717891_a_at) / RFU IL23R (11748794_a_at) / Fold change /veh IL23R (11748794_a_at) / RFU TNFAIP8L3 (11732012_x_at) / Fold change /veh TNFAIP8L3 (11732012_x_at) / RFU MBOAT4 (11741988_at) / Fold change /veh MBOAT4 (11741988_at) / RFU 11764193_at / Fold change /veh 11764193_at / RFU TMEM53 (11763286_at) / Fold change /veh TMEM53 (11763286_at) / RFU MAGEB2 (11727129_at) / Fold change /veh MAGEB2 (11727129_at) / RFU TMEM200A (11744735_a_at) / Fold change /veh TMEM200A (11744735_a_at) / RFU CCDC152 (11751479_a_at) / Fold change /veh CCDC152 (11751479_a_at) / RFU FAM211A (11726209_a_at) / Fold change /veh FAM211A (11726209_a_at) / RFU RGS16 (11746705_a_at) / Fold change /veh RGS16 (11746705_a_at) / RFU VCAN (11755009_s_at) / Fold change /veh VCAN (11755009_s_at) / RFU RHOB (11743442_s_at) / Fold change /veh RHOB (11743442_s_at) / RFU RGS16 (11720943_a_at) / Fold change /veh RGS16 (11720943_a_at) / RFU RGS16 (11720944_at) / Fold change /veh RGS16 (11720944_at) / RFU, VPS4B / Fold change vs veh, VPS4B / RFU, CREB1 / Fold change vs veh, CREB1 / RFU, DNAJC13 / Fold change vs veh, DNAJC13 / RFU, GNAQ / Fold change vs veh, GNAQ / RFU, CDK5R1 / Fold change vs veh, CDK5R1 / RFU, ZRANB3 / Fold change vs veh, ZRANB3 / RFU, CUL4A / Fold change vs veh, CUL4A / RFU, CCNY / Fold change vs veh, CCNY / RFU, UFL1 / Fold change vs veh, UFL1 / RFU, COG3 / Fold change vs veh, COG3 / RFU, DIAPH2 / Fold change vs veh, DIAPH2 / RFU, SKA2 / Fold change vs veh, SKA2 / RFU, AFF3 / Fold change vs veh, AFF3 / RFU, LMF1 / Fold change vs veh, LMF1 / RFU, IPO11 / Fold change vs veh, IPO11 / RFU, DFFB / Fold change vs veh, DFFB / RFU, FOXP1 / Fold change vs veh, FOXP1 / RFU, CARD8 / Fold change vs veh, CARD8 / RFU, STRN3 / Fold change vs veh, STRN3 / RFU, ADK / Fold change vs veh, ADK / RFU, RASSF2 / Fold change vs veh, RASSF2 / RFU, WIPF1 / Fold change vs veh, WIPF1 / RFU, LARP1B / Fold change vs veh, LARP1B / RFU, RASA1 / Fold change vs veh, RASA1 / RFU, RB1 / Fold change vs veh, RB1 / RFU, PPFIA1 / Fold change vs veh, PPFIA1 / RFU, MAT2A / Fold change vs veh, MAT2A / RFU, CCT5 / Fold change vs veh, CCT5 / RFU, WDR92 / Fold change vs veh, WDR92 / RFU, CUX1 / Fold change vs veh, CUX1 / RFU, TTC7A / Fold change vs veh, TTC7A / RFU, TMEM135 / Fold change vs veh, TMEM135 / RFU, DEPTOR / Fold change vs veh, DEPTOR / RFU, CPM / Fold change vs veh, CPM / RFU, DNAJB6 / Fold change vs veh, DNAJB6 / RFU, CACNA2D3 / Fold change vs veh, CACNA2D3 / RFU, DTX4 / Fold change vs veh, DTX4 / RFU, TFCP2 / Fold change vs veh, TFCP2 / RFU, GMCL1 /// GMCL1P1 / Fold change vs veh, GMCL1 /// GMCL1P1 / RFU, AEBP2 / Fold change vs veh, AEBP2 / RFU, SNHG1 /// SNORD22 /// SNORD25 /// SNORD26 /// SNORD27 /// SNORD28 /// SNORD29 /// SNORD31 / Fold change vs veh, SNHG1 /// SNORD22 /// SNORD25 /// SNORD26 /// SNORD27 /// SNORD28 /// SNORD29 /// SNORD31 / Fold change (Aza/veh), C12orf56 (ProbeSet 11735607_a_at) / Fold change (ACY-1035/veh), C12orf56 (ProbeSet 11735607_a_at) / Fold change (Aza/veh), FGFR1OP (ProbeSet 11751329_s_at) / Fold change (ACY-1035/veh), FGFR1OP (ProbeSet 11751329_s_at) / Fold change (Aza/veh), VPS36 (ProbeSet 11739960_a_at) / Fold change (ACY-1035/veh), VPS36 (ProbeSet 11739960_a_at) / RFU SYPL1 (11715823_x_at) / Fold change /veh SYPL1 (11715823_x_at) / RFU IGFBP7 (11715501_s_at) / Fold change /veh IGFBP7 (11715501_s_at) / RFU REEP3 (11722064_at) / Fold change /veh REEP3 (11722064_at) / RFU IGLL1 (11728026_x_at) / Fold change /veh IGLL1 (11728026_x_at): dose or concentration left out as unconfirmed
Settings: MV-4-11 cells, 48 hours

Nc1ncn([C@@H]2O[C@H](CO)[C@@H](O)[C@H]2O)c(=O)n1 [azacitidine]
Fold change /veh SRD5A1 (11742802_a_at): 1.21
